Results: PMC4516653 (European journal of pharmaceutical sciences : official …, 2015)
“And” between values parts separate entries of the source, which are not always exact repeats. Identical values can stand only once. Like-named read-outs stand apart in the source and are kept apart here. Each block holds one compound with its values, some of them ahead of it.

Tests used:
[1] = Single-dose oral PK screening of Nos with dietary ingredients; assay type: in vivo, male CD-1 mice
CYP 2A6 = target: T1, CYP 2A6 (Homo sapiens, UniProt P11509); test: CYP inhibition assay in human liver microsomes; assay type: in vitro ADME
T1 sequence (P11509 1-494): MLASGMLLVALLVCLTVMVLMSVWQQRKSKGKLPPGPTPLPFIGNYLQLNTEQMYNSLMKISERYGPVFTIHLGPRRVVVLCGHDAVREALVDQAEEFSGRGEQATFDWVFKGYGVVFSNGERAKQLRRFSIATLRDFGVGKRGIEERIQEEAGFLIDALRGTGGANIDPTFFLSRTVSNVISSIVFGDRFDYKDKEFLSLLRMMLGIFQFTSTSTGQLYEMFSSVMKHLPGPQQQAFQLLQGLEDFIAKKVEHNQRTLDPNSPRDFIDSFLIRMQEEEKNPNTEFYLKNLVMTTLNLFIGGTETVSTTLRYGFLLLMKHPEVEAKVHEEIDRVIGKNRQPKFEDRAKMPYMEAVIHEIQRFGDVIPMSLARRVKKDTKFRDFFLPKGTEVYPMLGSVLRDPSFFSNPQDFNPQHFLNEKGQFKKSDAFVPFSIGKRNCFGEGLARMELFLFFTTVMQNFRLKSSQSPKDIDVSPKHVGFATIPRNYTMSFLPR

CYP 2C9 = CYP 2C9 (Homo sapiens, UniProt P11712); test: CYP inhibition assay in human liver microsomes; assay type: in vitro ADME
CYP3A4 = CYP3A4 (Homo sapiens, UniProt P08684); test: CYP inhibition assay in human liver microsomes; assay type: in vitro ADME; settings: mean value given in text, HLM
CYP 2C8 = target: T2, CYP 2C8 (Homo sapiens, UniProt P10632); test: CYP inhibition assay in human liver microsomes; assay type: in vitro ADME
T2 sequence (P10632 1-490): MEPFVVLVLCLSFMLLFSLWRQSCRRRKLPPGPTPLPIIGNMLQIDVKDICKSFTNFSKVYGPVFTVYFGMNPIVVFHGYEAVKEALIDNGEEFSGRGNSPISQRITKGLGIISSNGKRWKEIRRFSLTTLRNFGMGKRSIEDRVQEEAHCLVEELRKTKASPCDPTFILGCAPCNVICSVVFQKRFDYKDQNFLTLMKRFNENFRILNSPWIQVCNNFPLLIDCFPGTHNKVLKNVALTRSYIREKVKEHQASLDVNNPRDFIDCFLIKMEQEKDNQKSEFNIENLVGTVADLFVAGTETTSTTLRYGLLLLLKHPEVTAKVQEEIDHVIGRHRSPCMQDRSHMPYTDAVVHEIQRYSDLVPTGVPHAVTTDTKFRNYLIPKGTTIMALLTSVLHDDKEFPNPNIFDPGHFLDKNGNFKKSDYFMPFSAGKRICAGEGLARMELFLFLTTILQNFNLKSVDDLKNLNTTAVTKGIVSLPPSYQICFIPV

CYP 2E1 = CYP 2E1 (Homo sapiens, UniProt P05181); test: CYP inhibition assay in human liver microsomes; assay type: in vitro ADME
CYP 2D6 = CYP 2D6 (Homo sapiens, UniProt P10635); test: CYP inhibition assay in human liver microsomes; assay type: in vitro ADME
CYP 1A2 = target: T3, CYP 1A2 (Homo sapiens, UniProt P05177); test: CYP inhibition assay in human liver microsomes; assay type: in vitro ADME
T3 sequence (P05177 1-516): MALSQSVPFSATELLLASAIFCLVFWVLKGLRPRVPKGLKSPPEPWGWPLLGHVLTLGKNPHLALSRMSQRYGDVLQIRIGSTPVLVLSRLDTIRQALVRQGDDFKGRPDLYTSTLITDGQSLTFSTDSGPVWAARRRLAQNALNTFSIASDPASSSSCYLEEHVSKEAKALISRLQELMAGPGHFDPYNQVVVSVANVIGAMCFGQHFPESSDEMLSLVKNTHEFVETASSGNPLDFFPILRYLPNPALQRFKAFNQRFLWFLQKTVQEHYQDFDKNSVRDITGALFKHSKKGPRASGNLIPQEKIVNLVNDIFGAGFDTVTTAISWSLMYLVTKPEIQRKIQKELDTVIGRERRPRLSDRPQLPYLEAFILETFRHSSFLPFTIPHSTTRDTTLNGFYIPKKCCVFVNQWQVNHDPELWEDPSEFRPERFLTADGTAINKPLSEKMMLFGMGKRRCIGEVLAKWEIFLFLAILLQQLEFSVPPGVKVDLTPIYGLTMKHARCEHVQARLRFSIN

CYP 2B6 = target: T4, CYP 2B6 (Homo sapiens, UniProt P20813); test: CYP inhibition assay in human liver microsomes; assay type: in vitro ADME; settings: IC50 CYP 2B6, human liver microsomes; duplicate incubations, both values printed
T4 sequence (P20813 1-491): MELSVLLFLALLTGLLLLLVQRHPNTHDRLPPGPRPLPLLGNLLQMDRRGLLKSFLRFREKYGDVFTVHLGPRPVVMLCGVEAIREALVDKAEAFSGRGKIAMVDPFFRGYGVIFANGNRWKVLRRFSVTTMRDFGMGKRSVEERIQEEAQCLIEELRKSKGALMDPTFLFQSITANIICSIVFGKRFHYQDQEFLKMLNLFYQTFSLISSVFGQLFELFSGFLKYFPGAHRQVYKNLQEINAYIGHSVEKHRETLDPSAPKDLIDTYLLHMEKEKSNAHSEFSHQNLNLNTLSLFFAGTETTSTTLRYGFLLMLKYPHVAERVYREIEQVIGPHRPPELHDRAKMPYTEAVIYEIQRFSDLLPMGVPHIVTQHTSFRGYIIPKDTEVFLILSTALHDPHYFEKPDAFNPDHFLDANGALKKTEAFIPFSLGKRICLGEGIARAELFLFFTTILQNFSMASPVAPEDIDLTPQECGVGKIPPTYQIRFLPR

[2] = Microsomal stability assay of Nos; assay type: in vitro ADME, CD-1 mouse; settings: Noscapine 10 μM alone; n=2
[3] = Microsomal stability assay of Nos; assay type: in vitro ADME, Beagle dog; settings: Noscapine 10 μM alone; n=2
[4] = cited from earlier work
[5] = Microsomal stability assay of Nos; assay type: in vitro ADME, human; settings: Noscapine 10 μM alone; n=2
[6] = Clinical chemistry parameters after 7 days oral dosing; assay type: in vivo, mice; settings: hepatic and renal serum markers
[7] = Microsomal stability assay of Nos; assay type: in vitro ADME, Sprague-Dawley rat; settings: Noscapine 10 μM alone; n=2
Repeated-dose = assay type: in vivo, male CD-1 mice; settings: for AUC(0-t): AUClast
UGT = test: In vitro UGT inhibition in mouse liver; settings: UGT inhibition experiments, MLM and MIM, Figure 7
[8] = IC50 CYP 2C9, human liver microsomes, duplicate incubations, both values printed
[9] = IC50 CYP 2C8, human liver microsomes, duplicate incubations, both values printed
[10] = IC50 CYP 1A2, human liver microsomes, duplicate incubations, both values printed
[11] = male, CD-1, mouse, plasma, po, 50 mg/kg

CYP 2E1, sequence (P05181 whole entry): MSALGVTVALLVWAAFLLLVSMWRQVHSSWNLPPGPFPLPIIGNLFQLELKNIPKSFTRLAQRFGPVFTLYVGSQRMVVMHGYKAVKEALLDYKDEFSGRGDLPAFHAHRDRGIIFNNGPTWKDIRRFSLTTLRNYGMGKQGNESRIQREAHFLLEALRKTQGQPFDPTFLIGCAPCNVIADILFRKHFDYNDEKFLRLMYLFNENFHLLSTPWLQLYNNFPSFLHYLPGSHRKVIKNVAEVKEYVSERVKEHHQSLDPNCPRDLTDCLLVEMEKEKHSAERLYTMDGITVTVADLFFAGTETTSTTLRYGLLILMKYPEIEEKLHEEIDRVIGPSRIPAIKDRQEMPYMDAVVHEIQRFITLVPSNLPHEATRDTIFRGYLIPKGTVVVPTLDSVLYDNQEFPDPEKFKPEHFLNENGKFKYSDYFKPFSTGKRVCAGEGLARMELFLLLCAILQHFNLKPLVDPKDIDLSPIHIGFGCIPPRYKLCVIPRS
CYP 2C9, sequence (P11712 whole entry): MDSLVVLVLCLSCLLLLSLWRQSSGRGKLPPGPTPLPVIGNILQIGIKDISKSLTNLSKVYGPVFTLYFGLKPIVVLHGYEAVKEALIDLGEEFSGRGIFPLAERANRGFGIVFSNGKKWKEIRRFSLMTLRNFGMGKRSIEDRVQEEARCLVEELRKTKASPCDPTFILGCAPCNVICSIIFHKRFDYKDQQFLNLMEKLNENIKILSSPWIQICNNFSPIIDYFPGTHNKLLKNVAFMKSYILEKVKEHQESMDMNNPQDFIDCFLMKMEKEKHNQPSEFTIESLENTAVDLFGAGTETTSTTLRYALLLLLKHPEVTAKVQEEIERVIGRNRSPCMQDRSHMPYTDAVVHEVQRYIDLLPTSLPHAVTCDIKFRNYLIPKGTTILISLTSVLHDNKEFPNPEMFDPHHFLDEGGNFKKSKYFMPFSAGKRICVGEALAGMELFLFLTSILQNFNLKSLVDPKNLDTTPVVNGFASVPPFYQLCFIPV
CYP 2D6, sequence (P10635 whole entry): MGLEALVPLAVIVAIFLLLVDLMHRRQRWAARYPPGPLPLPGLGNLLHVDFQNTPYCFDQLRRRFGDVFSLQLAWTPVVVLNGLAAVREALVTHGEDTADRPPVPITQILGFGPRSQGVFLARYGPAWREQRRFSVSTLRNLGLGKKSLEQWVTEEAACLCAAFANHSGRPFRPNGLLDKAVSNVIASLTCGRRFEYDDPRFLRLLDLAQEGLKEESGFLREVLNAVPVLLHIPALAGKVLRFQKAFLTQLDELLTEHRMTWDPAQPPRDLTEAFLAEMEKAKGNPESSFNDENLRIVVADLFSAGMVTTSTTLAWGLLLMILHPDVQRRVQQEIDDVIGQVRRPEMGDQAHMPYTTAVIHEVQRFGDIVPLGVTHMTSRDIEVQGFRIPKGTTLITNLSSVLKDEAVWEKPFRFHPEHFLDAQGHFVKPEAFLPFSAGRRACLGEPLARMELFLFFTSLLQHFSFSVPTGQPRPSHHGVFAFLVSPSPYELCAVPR
CYP3A4, sequence (P08684 2-503 limits assumed): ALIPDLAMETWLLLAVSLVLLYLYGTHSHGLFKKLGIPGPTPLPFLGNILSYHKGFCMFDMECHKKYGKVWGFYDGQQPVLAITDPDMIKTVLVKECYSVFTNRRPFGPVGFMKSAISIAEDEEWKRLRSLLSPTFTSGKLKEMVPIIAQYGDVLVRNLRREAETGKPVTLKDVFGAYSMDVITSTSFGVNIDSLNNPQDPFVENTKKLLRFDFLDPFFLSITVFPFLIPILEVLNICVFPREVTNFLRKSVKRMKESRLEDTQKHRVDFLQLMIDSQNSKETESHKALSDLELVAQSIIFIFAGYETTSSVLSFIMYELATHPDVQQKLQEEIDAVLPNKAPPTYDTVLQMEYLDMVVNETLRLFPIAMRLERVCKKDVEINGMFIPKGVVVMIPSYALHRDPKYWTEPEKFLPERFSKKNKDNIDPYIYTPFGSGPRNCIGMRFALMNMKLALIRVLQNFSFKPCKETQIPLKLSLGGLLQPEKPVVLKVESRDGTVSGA

Compound: C=CCc1ccc(O)c(OC)c1 [Eu, eugenol]
Tmax of Nos ([1]; Nos alone or co-dosed with the named dietary agent, single oral dose): remained unaffected

IC50 (CYP 2A6): > 100 µM
IC50 (CYP 2C9): 3.7 µM
IC50 (CYP 2C9; [8]): 4.5 µM
IC50 (CYP 2C9; mean IC50 CYP2C9, mean value given in text, HLM): 4.1 µM
IC50 (CYP3A4; mean IC50 CYP3A4, midazolam as substrate): 16 µM
IC50 (CYP3A4; mean IC50 CYP3A4, testosterone as substrate): 9.7 µM
IC50 (CYP 2C8; [9]): 6.3 µM and 5.9 µM
IC50 (CYP 2C8; mean IC50 CYP2C8, mean value given in text, HLM): 6.1 µM
IC50 (CYP 2E1): > 100 µM
IC50 (CYP 2D6): 68 µM
IC50 (CYP 1A2; [10]): 3.1 µM and 3.5 µM
IC50 (CYP 1A2; mean IC50 CYP1A2, mean value given in text, HLM): 3.3 µM
IC50 (CYP 2B6): 26 µM and 24 µM
Compound: COc1cc(CNC(=O)CCCC/C=C/C(C)C)ccc1O [Cap, capsaicin]

IC50 (CYP 2A6): > 100 µM
Intrinsic Clearance MLM [2]: 6.4 mL/min/g liver
Intrinsic Clearance DLM [3]: 1.9 mL/min/g liver
IC50 (CYP 2C9; [8]): 18 µM and 24 µM
IC50 (CYP 2C8; [9]): 10 µM and 8.4 µM
IC50 (CYP 2E1): > 100 µM
IC50 (CYP 2D6): > 100 µM
AUC(0-t) [1, 11]: 1920 ng·h/mL
Tmax [1, 11]: 4.8 min
half-life [1, 11]: < 60 min
IC50 (CYP 1A2; [10]): > 100 µM
Intrinsic Clearance HLM [5]: 1.8 mL/min/g liver
IC50 (CYP 2B6): > 100 µM
clinical chemistry parameters vs vehicle-treated mice [6]: did not affect
Intrinsic Clearance RLM [7]: 4.0 mL/min/g liver
AUClast (Repeated-dose; Day 1, noscapine, oral gavage Nos 50 mg/kg bw, Cap/Pip 5 mg/kg bw, CD-1 mice): 1023.76 ng·h/mL
Cmax (Repeated-dose; Day 1, noscapine, oral gavage Nos 50 mg/kg bw, Cap/Pip 5 mg/kg bw, CD-1 mice, mean ± SD): 3087.37 ± 1232.27 ng/mL
AUClast (Repeated-dose; Day 7, noscapine, daily oral gavage Nos 50 mg/kg bw, Cap/Pip 5 mg/kg bw, CD-1 mice): 507.74 ng·h/mL
Cmax (Repeated-dose; Day 7, noscapine, daily oral gavage Nos 50 mg/kg bw, Cap/Pip 5 mg/kg bw, CD-1 mice, mean ± SD): 684.04 ± 31.77 ng/mL
Tmax at 1 day (Repeated-dose; [11]): 10.2 min
Tmax at 7 days (Repeated-dose; [11]): 15 min
AUC(0-t) (Repeated-dose; male, CD-1, mouse, plasma, po, 50 mg/kg, Day 1, noscapine, oral gavage Nos 50 mg/kg bw, Cap/Pip 5 mg/kg bw, CD-1 mice): 1020 ng·h/mL
AUC(0-t) (Repeated-dose; male, CD-1, mouse, plasma, po, 50 mg/kg, Day 7, noscapine, daily oral gavage Nos 50 mg/kg bw, Cap/Pip 5 mg/kg bw, CD-1 mice): 508 ng·h/mL
Cmax at 1 day (Repeated-dose; male, CD-1, mouse, plasma, po, 50 mg/kg, Cmax, Day 1, noscapine, oral gavage Nos 50 mg/kg bw, Cap/Pip 5 mg/kg bw, CD-1 mice, mean ± SD): 3090 ng/mL
Cmax at 7 days (Repeated-dose; male, CD-1, mouse, plasma, po, 50 mg/kg, Cmax, Day 7, noscapine, daily oral gavage Nos 50 mg/kg bw, Cap/Pip 5 mg/kg bw, CD-1 mice, mean ± SD): 684 ng/mL
decrease in exposure of Nos on day 7 compared to day 1 (Repeated-dose; repeated oral dosing for seven days): half
Compound: COc1ccc2c(c1OC)C(=O)O[C@@H]2[C@H]1c2c(cc3c(c2OC)OCO3)CCN1C [Nos, Noscapine]
bioavailability ([4]; mice, ref Aneja et al., 2007): around 32%
Oral bioavailability ([4]; mouse, reported, no reference given): 30%
half-life ([4]; ref Aneja et al., 2007): < 2 h

IC50 (CYP 2A6): > 100 µM
IC50 (CYP 2C9): 54 µM
IC50 (CYP 2C8; [9]): 84 µM and 78 µM
IC50 (CYP 2E1): > 100 µM
IC50 (CYP 2D6): > 100 µM
IC50 (CYP 1A2; [10]): 35 µM and 38 µM
IC50 (CYP 2B6): 87 µM and 90 µM
Compound: O=C(/C=C/C=C/c1ccc2c(c1)OCO2)N1CCCCC1 [Pip, piperine]
inhibitory effect on the rate of metabolism of Nos (UGT): did not reveal significant inhibitory effects
